Results as given in PMC2246479, “A phase 1 and pharmacokinetic study of didox: a ribonucleotide reductase inhibitor” (British Journal of Cancer, 1988).

Tests used:
[1] = system: metastatic carcinoma; test: Clinical response in the phase 1 study; assay type: in vivo, human; details: 34 patients, any dosage level
[2] = system: patients with unresponsive metastatic carcinoma; details: in vivo
[3] = in vivo
[4] = biological target: ribonucleotide reductase; details: cited from earlier work
[5] = system: a number of cell lines; details: continuous drug exposure, no reference given; cited from earlier work
[6] = system: pools of deoxyribonucleotides; details: cited from earlier work
[7] = system: L1210 leukaemia; parameters: method as in Van't Riet et al., 1979; details: L1210 leukaemia bearing female mice; ref Van't Riet et al., 1979; cited from earlier work
[8] = system: NCI tumour panel; parameters: method as in Elford & Van't Riet, 1985; details: ref Elford & Van't Riet, 1985; cited from earlier work
[9] = system: murine tumours; parameters: method as in Elford et al., 1984; details: ref Elford et al., 1984; cited from earlier work
[10] = parameters: method as in Van't Riet, personal communication; details: rats; ref Van't Riet, personal communication; cited from earlier work
[11] = system: mice; details: single dose, ref CRC Sponsored Toxicity Report, 1984; cited from earlier work

With O=C(NO)c1ccc(O)c(O)c1 [didox, N,3-4 trihydroxy-benzamide] the Clinical responses [1] was “No clinical responses”, the “Maximum tolerated dose / dose that can be safely given” value ([2]; human, iv) was 6 g m-2 and the “Patients with severe diarrhoea (grade 4)” value [2] was 2 patients. For the same molecule, the “Total white cell count after didox” value [2] was > 20 x 109 1-, the “Dose above which severe nausea and vomiting almost universal” value ([2]; iv) was “above 7 g m- 2” and the “Dose at which dose limiting toxicity was encountered” value ([2]; iv) was 7.5 g m-2. For the same molecule, the “Dose at which minor toxicity was initially noted” value ([2]; iv) was 2,304 mg m 2, the “Steady state volume of distribution” value ([3]; human) was 27.9 ± 6.2 lm-2 and the “Total body Clearance” value ([3]; human) was 0.71 ± 0.19 Imin- 1 m-2. The t1/2 alpha ([3]; human) was 5.2 min, the t1/2 beta ([3]; human) was 41.3 min and the “Time to peak level of didox after injection” value ([3]; human, iv) was no more than 5 min. The “Administered dose excreted unchanged in the urine” value ([3]; iv) was “Less than 10%”, the “Time within which the majority of urinary excretion occurred” value ([3]; iv) was no more than 6 h and the IC50 ([4]; enzyme study, no reference given, read-out: Concentration causing 50% inhibition of the target enzyme) was 30 µM. The “Inhibition of ribonucleotide reductase compared to hydroxyurea” value ([4]; ref Elford et al., 1979) was “greater inhibition”, the “Growth inhibitory concentration in vitro” value [5] was “up to 100 uM” and the “Depletion of the pools of all deoxyribonucleotides” value ([6]; ref Elford et al., 1981) was “over 50%”. For the same molecule, the Anti-neoplastic activity [7] was “anti-neoplastic activity”, the “Activity in the NCI tumour panel” value [8] was “active” and the “Interaction with doxorubicin and cyclophosphamide” value [9] was “act synergistically”. For the same molecule, the Major metabolites formed [10] was 3,4-dihydroxybenzamide, 3-hydroxy-4-methoxybenzo- hydroxamic acid and 3-methoxy-4-hydroxy- benzohydroxamic acid and the LD10 [11] was 643 mg/kg.
For NC(=O)NO [hydroxyurea, reference compound], the “Inhibition of ribonucleotide reductase in vitro” value ([4]; ref Elford, 1968) is given as “weak inhibitor” and the Deoxyribonucleotide pools depleted ([6]; ref Thelander & Reichard 1979) is given as “only depleted pools of dGTP and dATP”.
